The subject of test [1] is monocrotaline-induced pulmonary hypertension model rats (MCT-PAH). As to the kind of experiment: Monocrotaline-induced pulmonary hypertension model rats, oral (gavage) treatment for 21 days. Type of test: in vivo, SD rats. Particulars: 100 mg/kg.
Test [2] shares this test system. As to the kind of experiment: Monocrotaline-induced pulmonary hypertension model rats, aerosol inhalation treatment. Particulars: inh, 28 days. Type of test: in vivo, SD rats. Here is the method:
A pulmonary hypertension animal model of SD rats was established by subcutaneous injection of monocrotaline (MCT). The compound 1 was administered by aerosol inhalation for treatment. The pulmonary artery hemodynamics and right heart hypertrophy index RVHI of rats were tested to determine whether compound 1 administered by aerosol inhalation has effects of improving monocrotaline-induced pulmonary hypertension.
SD rats (purchased from Shanghai Xipuer-Bikai Experimental Animal Co., Ltd.), male, weighing 180-200 g, were bred in an artificially controlled animal room with each 12 hours of light and darkness at a temperature of 20-25° C. and relative humidity of 50-60%, and allowed ad libitum to food and water. The rats were randomly divided into groups according to the experimental requirements, and kept separately in cages, with 3 to 4 rats per cage. All relevant operations of animal experiments are in compliance with the provisions of “Guidelines for the Management and Use of Laboratory Animals” of China.
In the second experiment, the rats were divided into 5 groups, namely the control group, model group, positive control Tyvaso (1.62 μg/kg) group, compound 1 (10 mg/kg) group and compound 1 (30 mg/kg) group. On the first day of the experiment, normal saline was injected subcutaneously into the back of the neck of the rats in the blank control group, and monocrotaline (Chengdu Purifa Biotechnology Co., Ltd.) solution was injected in the other groups at a dosage of 60 mg/kg. Compound 1 and Tyvaso were administered by aerosol inhalation, that is, the compound was firstly dissolved in physiological saline, and then the solution was prepared into an aerosol with a nebulizer to be inhaled into the mouth and nose of rats. The rats in the control group and the model group only inhaled an aerosol made of physiological saline. The rats were continuously administered for 28 days, and the concentration in the parentheses of the group name represents the administered concentration of the compound. Specific groupings can be found in Table 9. After the administration, the pulmonary vascular hemodynamics and RVHI were determined in the same way as the experiment method in Example 1.

For `CCc1cccc(C(O)CO)c1` (stereo not drawn) [Compound 1, 1-(3-ethylphenyl)-1,2-ethylene glycol], the “2 × MT/ED” value worked out at 0.27 ± 0.062 in test [1], 0.335 ± 0.034 in test [2] (10 mg/kg) and 0.319 ± 0.035 in test [2] (30 mg/kg). For the same compound, the RVHI in test [1] is recorded as 0.31 ± 0.059; in test [1] (listed as compound 1, 100 mg/kg) it was 0.31±0.059; in test [2] (10 mg/kg) it was 0.235 ± 0.026; in test [2] (10 mg/kg, listed as compound 1, 10 mg/kg), 0.235±0.026; in test [2] (30 mg/kg) it was 0.204 ± 0.035; in test [2] (30 mg/kg, listed as compound 1, 30 mg/kg) it was 0.204±0.035. The RVSP in test [1] is 39.72 ± 3.46 mmHg; in test [2] (10 mg/kg), 35.92 ± 3.74 mmHg; in test [2] (30 mg/kg) it was 31.18 ± 4.62 mmHg. For the same compound, the mPAP in test [1] came to 9.21 ± 2.69 mmHg; in test [2] (10 mg/kg), 11.46 ± 2.48 mmHg; in test [2] (30 mg/kg), 8.06 ± 2.59 mmHg.

These data come from US12180146B2, “Antihypertensive polyol compound and derivative thereof” (TAO PHARMACEUTICAL (SUZHOU) CO., LTD, priority 2020, dated 2024).
